Among the data in ChEMBL document CHEMBL2057121, “Selective non-lipid modulator of LPA5 activity in human platelets” (Bioorg Med Chem Lett, 2012) are IC50 values, retold here.

The target in experiment [1] is Lysophosphatidic acid receptor 5 (Homo sapiens, UniProt Q9H1C0). As to the kind of experiment: Antagonist activity at human recombinant LPA5 receptor expressed in rat RH7777 cells assessed as inhibition of hexadecyl-LPA-induced effect. The format is functional, cell-based.
Experiment [2] concerns the target Lysophosphatidic acid receptor 1/3 (Homo sapiens, UniProt Q9UBY5+Q92633). Put plainly: Antagonist activity at LPA1/3 receptor in human isolated platelets assessed as inhibition of collagen-induced platelet aggregation after 3 mins. The format is functional.

Lysophosphatidic acid receptor 5, sequence (Q9H1C0 whole entry): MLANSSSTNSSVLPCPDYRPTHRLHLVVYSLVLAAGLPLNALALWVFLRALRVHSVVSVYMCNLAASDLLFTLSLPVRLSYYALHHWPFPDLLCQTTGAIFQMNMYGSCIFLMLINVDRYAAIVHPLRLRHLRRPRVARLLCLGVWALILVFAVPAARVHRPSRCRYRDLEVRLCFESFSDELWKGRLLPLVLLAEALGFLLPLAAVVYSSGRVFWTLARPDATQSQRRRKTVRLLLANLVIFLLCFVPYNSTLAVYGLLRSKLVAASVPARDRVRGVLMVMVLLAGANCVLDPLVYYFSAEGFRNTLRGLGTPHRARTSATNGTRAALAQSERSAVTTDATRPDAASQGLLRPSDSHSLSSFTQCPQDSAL

Take `COc1cccc(-n2nc(C(=O)O)cc2-c2ccc(C3CCCCC3)c(Cl)c2)c1`: the figures for the 50% inhibitory concentration (IC50) in experiment [1] and in experiment [2] were 800 nM and above 10000 nM, respectively.
